Here are results for two substances from patent publication US6562355B1, “Comixture of dextran sulfate/escin for treating skin redness/edema and/or sensitive skin” (Societe L'Oreal S.A., priority 1999, dated 2003).

In series [1] the test system is fragments of normal human skin kept alive (eyelid). Put plainly: Anti-edema and vasodilation-inhibitory effect in human skin kept alive after induction with substance P/TNFα/arachidonic acid (cocktail A); semi-quantitative histological scores. The series is classed as cell-based. The note with it: skin + cocktail A (5 μM substance P, arachidonic acid 40 mg/ml, TNFα 50 ng/ml) 2 hours, 37° C., topical, escin 0.075%, dextran sulfate 0.20%, 3 donors; for Vasodilation (histological score of dilation of the capillaries): score 0 (no dilation) to 4 (very large dilation), cocktail A alone 2.2, control skin 0.37; for Edema (histological score): score 0 (no edema) to 4 (very considerable edema), cocktail A alone 2.8, control skin 0.62. An excerpt: The goal of this study was to visualize the anti-edema effect and the vasodilation-inhibitory effect of intimate admixture of dextran sulfate and escin, in a model of skin kept alive (eyelid) after the induction of edema and vasodilation by a neuromediator (substance P)/α-type tumor necrosis factor (TNFα)/arachidonic acid combination.
Fragments of normal human skin from 3 different donors (plastic surgery), mechanically freed of the subcutaneous fat and the inner layer of the dermis, were each placed on a culture insert consisting of a porous membrane (pores 12 μm in diameter) (Costar), the dermal portion of the skin fragment being placed in contact with the porous membrane. The assembly thus prepared was positioned over the wells of a Costar brand 12-well culture plate and maintained for 24 hours at 37° C. in an incubator under a humidified atmosphere containing 5% CO2.
DMEM culture medium (Gibco-BRL) containing 100 U/ml of penicillin and 100 μg/ml of streptomycin, 200 μg/ml of L-glutamine and 0. 1% fetal calf serum (D.A.P., France), was added to the bottom of the wells such that the liquid reached the porous membrane without passing it. Thus mounted, the skin was in contact via its lower face surface through the porous membrane with the culture medium, transport taking place by slow diffusion between the two compartments.
The edema and the vasodilation were produced experimentally by placing on the surface of the skin a mixture in a culture medium consisting of 25 μl of a neuromediator (5 μM substance P), arachidonic acid (25 μl of a solution at a concentration of 40 mg/ml in glycerol) and TNFα (50 ng/ml), hereinafter referred to as “cocktail A”. These substances were maintained in contact with the skin for 2 hours.
The test products were applied topically onto the skin fragments during the induction of the edema and the vasodilation.
The escin, at a final concentration of 0.075%, was dissolved in water.
The dextran sulfate, at a final concentration of 0.20%, was dissolved in propylene glycol.
The temperature was maintained at 37° C. throughout the test period.
The histological analyses were carried out according to the conventional techniques known to this art, without modification of the protocols.
After treatment, the skin fragments were removed and fixed in Bouin liquid and included in paraffin for the histological analyses.
After staining with hemalun-eosin, the two (2) criteria, edema and dilation of the capillaries, were evaluated by means of semi-quantitative histological scores.
The histological evaluation was carried out in the superficial dermis and in the top part of the middle dermis on the same number of fields four (4) fields at 10× magnification). […]

For series [2] the following is noted: cited from earlier work.
For series [3] the following is noted: solutions of pH ranging from 4 to 10 at room temperature; cited from earlier work.

“And” between values parts separate entries of the source, which are not always exact repeats. Equal values may be shown once.

dextran sulfate: in series [1], the “Vasodilation (histological score of dilation of the capillaries)” value is 1.8 and 1.8 ± 1.04; the “Edema (histological score)” value was 2.1 and 2.1 ± 1.04. Further, the “solubility in water and saline solutions” value in series [2] was “good”. For the same substance, the stability in solutions entry in series [3] is “high”.
Take escin [reference compound]: in series [1], the “Vasodilation (histological score of dilation of the capillaries)” value is 1.5 and 1.5 ± 0.5; the “Edema (histological score)” value was 1.16 and 1.16 ± 0.77.
